Tested on: parasitophorous vacuole membrane of newly invaded merozoites
Assay: Lattice light sheet imaging and vacuole tracking
Format: cell-based, Plasmodium falciparum
Conditions: 60 nM W-991 vs DMSO
Protocol: Parasites were sorbitol synchronised at days 5 and 2 prior to filming. To prepare the parasites for filming, culture was loaded on LS columns attached to MACS MultiStand (Miltenyi Biotec) to isolate late-stage parasites. Imaging medium was prepared by adding 10 μM Trolox (Santa Cruz 53188-07-1) to the culture medium. To compare the effect of drug treatment on parasite invasion, either 60 nM of W-991 or an equivalent DMSO concentration was added to the imaging medium. RBCs were resuspended at 0.5% hematocrit in RPMI-HEPES supplemented with 0.2% sodium bicarbonate and stained with 1.5 μM Di-4-[…] (Invitrogen D36802) membrane marker for 1 h at 37 °C. The stained RBCs were then washed 3 x and resuspended in imaging medium. Purified schizonts were resuspended in culture medium and incubated with 25 nM Mitotracker Deep Red FM (Invitrogen M22426) for 30 min at 37 °C, 5% CO2. The stained schizonts were then pelleted and the supernatant removed before resuspending the schizonts in the imaging medium. Before imaging, imaging medium with drug was loaded to a well and imaging medium with DMSO control was loaded to another well on an 8-well glass bottom plate (Ibidi 80807). Stained RBCs and stained schizonts were then added to each well and let settle for 30 min. The imaging experiments were performed on Zeiss Lattice Lightsheet 7. […]

Which “shape/sphericity of the PVM of newly invaded merozoites” value (p = 0.045 at 15 min) does the source give for `CC(C)(Nc1ccc(Cl)c(S(=O)(=O)N2CCOCC2)c1)C(=O)Nc1ccc(F)c(Cl)c1` [W-991] here?
The value was “remained spherical”.

And the “mean vacuole surface area and volume of the PVM” value (p = 0.109, p = 0.129)?
The value was “reduced in W-991 but this did not reach significance”.

From paper PMC11189555, “Aryl amino acetamides prevent Plasmodium falciparum ring development via targeting the lipid-transfer protein PfSTART1” (Nature Communications, 2024)
